Measured values reported in the NIST ThermoML archive (doi:10.1021/je050050p).
Numbers after ± are expanded uncertainties.

Experiment: xn = mol fraction of the nth substance listed
Details: Liquid, Vibrating tube method

CN(C)C=O [dimethylformamide] + O=C=O
Details	mass density [kg/m3]
333 K, 18021 kPa, x2 = 0.4502	942.21 ± 0.41
333 K, 19006 kPa, x2 = 0.4502	943.4 ± 0.41
333 K, 19008 kPa, x2 = 0.4068	942.75 ± 0.41
333 K, 20008 kPa, x2 = 0.4068	943.81 ± 0.41
333 K, 20021 kPa, x2 = 0.4502	944.58 ± 0.41
333 K, 20981 kPa, x2 = 0.4068	944.88 ± 0.41
333 K, 21001 kPa, x2 = 0.4502	945.74 ± 0.41
333 K, 22001 kPa, x2 = 0.4068	945.96 ± 0.41
333 K, 22027 kPa, x2 = 0.4502	946.9 ± 0.41
333 K, 22996 kPa, x2 = 0.4068	947.02 ± 0.41
333 K, 23019 kPa, x2 = 0.4502	948.04 ± 0.41
333 K, 24013 kPa, x2 = 0.4068	948.07 ± 0.41
333 K, 24013 kPa, x2 = 0.4502	949.18 ± 0.41
333 K, 25001 kPa, x2 = 0.4068	949.09 ± 0.41
333 K, 25015 kPa, x2 = 0.4502	950.28 ± 0.41
342.89 K, 10992 kPa, x2 = 0.6235	886.15 ± 0.43
342.89 K, 12012 kPa, x2 = 0.6235	889.74 ± 0.43
342.89 K, 13020 kPa, x2 = 0.6235	893.05 ± 0.43
342.89 K, 14010 kPa, x2 = 0.6235	896.16 ± 0.47
342.89 K, 15018 kPa, x2 = 0.6235	899.25 ± 0.43
342.89 K, 16005 kPa, x2 = 0.6235	902.14 ± 0.43
342.89 K, 17023 kPa, x2 = 0.6235	905.02 ± 0.43
342.89 K, 18015 kPa, x2 = 0.6235	907.74 ± 0.43
342.89 K, 19032 kPa, x2 = 0.6235	910.42 ± 0.43
342.89 K, 20044 kPa, x2 = 0.6235	913.05 ± 0.43
342.89 K, 21008 kPa, x2 = 0.6235	915.46 ± 0.43
342.89 K, 21997 kPa, x2 = 0.6235	917.87 ± 0.43
342.89 K, 23022 kPa, x2 = 0.6235	920.31 ± 0.43
342.89 K, 24005 kPa, x2 = 0.6235	922.57 ± 0.43
342.89 K, 25050 kPa, x2 = 0.6235	924.92 ± 0.43
342.92 K, 9047 kPa, x2 = 0.4268	916.56 ± 0.41
342.92 K, 10045 kPa, x2 = 0.4268	917.97 ± 0.41
342.92 K, 11042 kPa, x2 = 0.4268	919.28 ± 0.41
342.92 K, 12037 kPa, x2 = 0.4268	920.66 ± 0.41
342.92 K, 13020 kPa, x2 = 0.4268	921.93 ± 0.41
342.92 K, 13997 kPa, x2 = 0.4268	923.27 ± 0.41
342.92 K, 14981 kPa, x2 = 0.4268	924.53 ± 0.41
342.92 K, 15034 kPa, x2 = 0.9311	711.76 ± 0.59
342.92 K, 15061 kPa, x2 = 0.8091	832.64 ± 0.8
342.92 K, 15988 kPa, x2 = 0.8091	839.54 ± 0.47
342.92 K, 15991 kPa, x2 = 0.4268	925.79 ± 0.41
342.92 K, 16002 kPa, x2 = 0.9311	729.81 ± 0.57
342.92 K, 17002 kPa, x2 = 0.4268	927.11 ± 0.41
342.92 K, 17015 kPa, x2 = 0.9311	745.62 ± 0.55
342.92 K, 17027 kPa, x2 = 0.8091	845.55 ± 0.46
342.92 K, 18016 kPa, x2 = 0.8091	851.1 ± 0.46
342.92 K, 18024 kPa, x2 = 0.9311	759.3 ± 0.53
342.92 K, 18025 kPa, x2 = 0.4268	928.36 ± 0.41
342.92 K, 19002 kPa, x2 = 0.9311	770.95 ± 0.52
342.92 K, 19028 kPa, x2 = 0.8091	856.53 ± 0.46
342.92 K, 19044 kPa, x2 = 0.4268	929.6 ± 0.41
342.92 K, 19999 kPa, x2 = 0.4268	930.83 ± 0.41
342.92 K, 20000 kPa, x2 = 0.9311	781.74 ± 0.51
342.92 K, 20057 kPa, x2 = 0.8091	861.77 ± 0.45
342.92 K, 20984 kPa, x2 = 0.4268	931.96 ± 0.41
342.92 K, 21012 kPa, x2 = 0.8091	866.52 ± 0.45
342.92 K, 21034 kPa, x2 = 0.9311	791.87 ± 0.51
342.92 K, 21992 kPa, x2 = 0.8091	871.08 ± 0.45
342.92 K, 22002 kPa, x2 = 0.4268	933.2 ± 0.42
342.92 K, 22002 kPa, x2 = 0.9311	800.53 ± 0.5
342.92 K, 22999 kPa, x2 = 0.8091	875.54 ± 0.45
342.92 K, 23014 kPa, x2 = 0.9311	809.02 ± 0.5
342.92 K, 23042 kPa, x2 = 0.4268	934.44 ± 0.42
342.92 K, 23981 kPa, x2 = 0.4268	935.53 ± 0.42
342.92 K, 24017 kPa, x2 = 0.9311	816.82 ± 0.49
342.92 K, 24029 kPa, x2 = 0.8091	879.9 ± 0.45
342.92 K, 25008 kPa, x2 = 0.9311	824.06 ± 0.49
342.92 K, 25020 kPa, x2 = 0.8091	883.99 ± 0.45
342.92 K, 25047 kPa, x2 = 0.4268	936.75 ± 0.42
342.93 K, 7012 kPa, x2 = 0.2876	914.85 ± 0.41
342.93 K, 7999 kPa, x2 = 0.2876	915.95 ± 0.41
342.93 K, 9007 kPa, x2 = 0.2876	917.04 ± 0.41
342.93 K, 10005 kPa, x2 = 0.2876	918.13 ± 0.41
342.93 K, 11003 kPa, x2 = 0.2876	919.16 ± 0.41
342.93 K, 12011 kPa, x2 = 0.2876	920.23 ± 0.41
342.93 K, 13016 kPa, x2 = 0.2876	921.27 ± 0.41
342.93 K, 14012 kPa, x2 = 0.2876	922.31 ± 0.41
342.93 K, 15013 kPa, x2 = 0.2876	923.35 ± 0.41
342.93 K, 16000 kPa, x2 = 0.2876	924.33 ± 0.41
342.93 K, 17024 kPa, x2 = 0.2876	925.34 ± 0.41
342.93 K, 18001 kPa, x2 = 0.2876	926.31 ± 0.41
342.93 K, 19036 kPa, x2 = 0.2876	927.32 ± 0.42
342.93 K, 20015 kPa, x2 = 0.2876	928.27 ± 0.42
342.93 K, 21009 kPa, x2 = 0.2876	929.23 ± 0.42
